Tests used:
Assay in all cases: Post-emergent Test III, herbicidal activity in wheat and barley
Assay type in all cases: in vivo
[1] = test system: HORSS: barley, including spring and winter (Hordeum vulgare); conditions: 21 days after application; for pest or weed control at 35 g/ha: 35 g ai/ha; for pest or weed control at 70 g/ha: 70 g ai/ha; for GR20 HORSS: probit analysis, dose for 20 percent growth reduction (crop)
How it was run: (§1)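 GR20, GR50, GR80 and GR90 come from probit analysis of visual injury scores (0 = none, 100 = complete kill) taken 21 d after treatment. Foliar application was by track sprayer delivering 187 L/ha at five rates, from high down to 1/16×, onto greenhouse plants at the 2–3 leaf stage, with solvent-blank controls.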

[2] = test system: KCHSC: kochia (Kochia scoparia); conditions: 21 days after application; for pest or weed control at 35 g/ha: 35 g ai/ha; for pest or weed control at 70 g/ha: 70 g ai/ha; for GR50 KCHSC / GR80 KCHSC: probit analysis; for GR50 KCHSC: dose for 50 percent growth reduction; for GR80 KCHSC: dose for 80 percent growth reduction
How it was run: as §1

[3] = test system: MATSS: scented mayweed (Matricaria chamomilla), pineappleweed (Matricaria matricarioides); conditions: 21 days after application; for pest or weed control at 35 g/ha: 35 g ai/ha; for pest or weed control at 70 g/ha: 70 g ai/ha; for GR50 MATSS / GR80 MATSS: probit analysis; for GR50 MATSS: dose for 50 percent growth reduction; for GR80 MATSS: dose for 80 percent growth reduction
How it was run: as §1

[4] = test system: SASKR: Russian thistle (Salsola iberica); conditions: 21 days after application; for pest or weed control at 35 g/ha: 35 g ai/ha; for pest or weed control at 70 g/ha: 70 g ai/ha; for GR50 SASKR / GR80 SASKR: probit analysis; for GR50 SASKR: dose for 50 percent growth reduction; for GR80 SASKR: dose for 80 percent growth reduction
How it was run: as §1

[5] = test system: TRZSS: wheat, including spring and winter (Triticum aestivum); conditions: 21 days after application; for pest or weed control at 35 g/ha: 35 g ai/ha; for pest or weed control at 70 g/ha: 70 g ai/ha; for GR20 TRZSS: probit analysis, dose for 20 percent growth reduction (crop)
How it was run: as §1

[6] = test system: VERPE: bird's-eye speedwell (veronica persica); conditions: 21 days after application; for pest or weed control at 35 g/ha: 35 g ai/ha; for pest or weed control at 70 g/ha: 70 g ai/ha; for GR50 VERPE / GR80 VERPE: probit analysis; for GR50 VERPE: dose for 50 percent growth reduction; for GR80 VERPE: dose for 80 percent growth reduction
How it was run: as §1

[7] = test system: VIOSS: wild pansy (Viola tricolor), field violet (Viola arvensis); conditions: 21 days after application; for pest or weed control at 35 g/ha: 35 g ai/ha; for pest or weed control at 70 g/ha: 70 g ai/ha; for GR50 VIOSS / GR80 VIOSS: probit analysis; for GR50 VIOSS: dose for 50 percent growth reduction; for GR80 VIOSS: dose for 80 percent growth reduction
How it was run: as §1

[8] = Hordeum vulgare, post-emergence, 504 h, read-out: Visual Gorowth Reduction (%) 21 days After Application HORSS
[9] = Bassia scoparia, post-emergence, 504 h, read-out: Visual Gorowth Reduction (%) 21 days After Application KCHSC
[10] = Matricaria chamomilla, post-emergence, 504 h, read-out: Visual Gorowth Reduction (%) 21 days After Application MATSS
[11] = Salsola tragus, post-emergence, 504 h, read-out: Visual Gorowth Reduction (%) 21 days After Application SASKR
[12] = Triticum aestivum, post-emergence, 504 h, read-out: Visual Gorowth Reduction (%) 21 days After Application TRZSS
[13] = Veronica persica, post-emergence, 504 h, read-out: Visual Gorowth Reduction (%) 21 days After Application VERPE
[14] = Viola tricolor, post-emergence, 504 h, read-out: Visual Gorowth Reduction (%) 21 days After Application VIOSS

SMILES | pest or weed control at 35 g/ha [1, 8] [%] | pest or weed control at 70 g/ha [1, 8] [%] | GR20 HORSS [1] [g ai/ha] | pest or weed control at 35 g/ha [2, 9] [%] | pest or weed control at 70 g/ha [2, 9] [%] | GR50 KCHSC [2] [g ai/ha] | GR80 KCHSC [2] [g ai/ha] | pest or weed control at 35 g/ha [3, 10] [%] | pest or weed control at 70 g/ha [3, 10] [%] | GR50 MATSS [3] [g ai/ha] | GR80 MATSS [3] [g ai/ha] | pest or weed control at 35 g/ha [4, 11] [%] | pest or weed control at 70 g/ha [4, 11] [%] | GR50 SASKR [4] [g ai/ha] | GR80 SASKR [4] [g ai/ha] | pest or weed control at 35 g/ha [5, 12] [%] | pest or weed control at 70 g/ha [5, 12] [%] | GR20 TRZSS [5] [g ai/ha] | pest or weed control at 35 g/ha [6, 13] [%] | pest or weed control at 70 g/ha [6, 13] [%] | other results
COC(=O)c1nc(-c2ccc(Br)c(F)c2F)nc(N)c1OC [Compound 122, methyl 6-amino-2-(4-bromo-2,3-difluorophenyl)-5-methoxypyrimidine-4-carboxylate] | 60 to 74 | 85 to 94 | 3 | 85 to 94 | 95 to 100 | 5 | 14 | 0 to 29 | 30 to 44 | >140 | >140 | 95 to 100 | 95 to 100 | <17.5 | <17.5 | 75 to 84 | 85 to 94 | 1 | 95 to 100 | 95 to 100 | GR50 VERPE [6]: 1 g ai/ha; GR80 VERPE [6]: 2 g ai/ha; pest or weed control at 35 g/ha [7, 14]: 95 to 100%; pest or weed control at 70 g/ha [7, 14]: 95 to 100%; GR50 VIOSS [7]: 10 g ai/ha; GR80 VIOSS [7]: 21 g ai/ha
COC(=O)c1nc(-c2ccc(I)c(F)c2F)cc(N)c1Cl [Compound 129, Methyl 4-amino-3-chloro-6-(2,3-difluoro-4-iodophenyl)picolinate] | 85 to 94 | 85 to 94 | 1 | 85 to 94 | 95 to 100 | 7 | 21 | 0 to 29 | 30 to 44 | 89 | 131 | 75 to 84 | 85 to 94 | 6 | 41 | 75 to 84 | 85 to 94 | 1 | 30 to 44 | 45 to 59 | GR50 VERPE [6]: 92 g ai/ha; GR80 VERPE [6]: >140 g ai/ha; pest or weed control at 35 g/ha [7, 14]: 75 to 84%; pest or weed control at 70 g/ha [7, 14]: 95 to 100%; GR50 VIOSS [7]: 17 g ai/ha; GR80 VIOSS [7]: 34 g ai/ha
COC(=O)c1nc(-c2ccc(I)c(F)c2)c(F)c(N)c1Cl [Compound 132] | 60 to 74 | 75 to 84 | 9 | 85 to 94 | 85 to 94 | 4 | 20 | 0 to 29 | 30 to 44 | >140 | >140 | 75 to 84 | 75 to 84 | 1 | 66 | 60 to 74 | 60 to 74 | 10 | 0 to 29 | 75 to 84 | pest or weed control at 140 g/ha ([1]; Hordeum vulgare, post-emergence, 504 h, 140 g ai/ha, read-out: Visual Gorowth Reduction (%) 21 days After Application HORSS): 95 to 100%; pest or weed control at 140 g/ha ([2]; Bassia scoparia, post-emergence, 504 h, 140 g ai/ha, read-out: Visual Gorowth Reduction (%) 21 days After Application KCHSC): 95 to 100%; pest or weed control at 140 g/ha ([3]; Matricaria chamomilla, post-emergence, 504 h, 140 g ai/ha, read-out: Visual Gorowth Reduction (%) 21 days After Application MATSS): 30 to 44%; pest or weed control at 140 g/ha ([4]; Salsola tragus, post-emergence, 504 h, 140 g ai/ha, read-out: Visual Gorowth Reduction (%) 21 days After Application SASKR): 75 to 84%; pest or weed control at 140 g/ha ([5]; Triticum aestivum, post-emergence, 504 h, 140 g ai/ha, read-out: Visual Gorowth Reduction (%) 21 days After Application TRZSS): 75 to 84%; pest or weed control at 140 g/ha ([6]; Veronica persica, post-emergence, 504 h, 140 g ai/ha, read-out: Visual Gorowth Reduction (%) 21 days After Application VERPE): 85 to 94%; GR50 VERPE [6]: 58 g ai/ha; GR80 VERPE [6]: 99 g ai/ha; pest or weed control at 35 g/ha [7, 14]: 95 to 100%; pest or weed control at 70 g/ha [7, 14]: 95 to 100%; pest or weed control at 140 g/ha ([7]; Viola tricolor, post-emergence, 504 h, 140 g ai/ha, read-out: Visual Gorowth Reduction (%) 21 days After Application VIOSS): 95 to 100%; GR50 VIOSS [7]: 9 g ai/ha; GR80 VIOSS [7]: 17 g ai/ha
Nc1c(F)c(-c2ccc(I)c(F)c2F)nc(C(=O)O)c1Cl [Compound 141, 4-amino-3-chloro-6-(2,3-difluoro-4-iodophenyl)-5-fluoropicolinic acid] | 85 to 94 | 95 to 100 | 1 | 75 to 84 | 85 to 94 | 7 | 28 | 75 to 84 | 95 to 100 | 15 | 33 | 75 to 84 | 85 to 94 | 4 | 40 | 75 to 84 | 85 to 94 | 1 | 75 to 84 | 85 to 94 | GR50 VERPE [6]: 14 g ai/ha; GR80 VERPE [6]: 43 g ai/ha; pest or weed control at 35 g/ha [7, 14]: 95 to 100%; pest or weed control at 70 g/ha [7, 14]: 95 to 100%; GR50 VIOSS [7]: 7 g ai/ha; GR80 VIOSS [7]: 11 g ai/ha

Reference: patent publication US9113629B2, “4-amino-6-(4-substituted-phenyl)-picolinates and 6-amino-2-(4-substituted-phenyl)-pyrimidine-4-carboxylates and their use as herbicides” (DOW AGROSCIENCES LLC, priority 2013, dated 2015)
